Test results reported in US5130307A, “Aminoesters of rapamycin” (American Home Products Corporation, priority 1991, dated 1992).
In brackets after ≈: the same amount, converted by molar mass.

Columns and labels:
[1] = test system: pinch skin graft from male DBA/2 donors transplanted to male BALB/c recipients; experiment: survival time of pinch skin graft; type: in vivo; details: intraperitoneally; mean ± SD
Description: Immunosuppressive activity was evaluated in an in vitro standard pharmacological test procedure to measure lymphocyte proliferation (LAF) and in two in vivo standard pharmacological test procedures. The first in vivo procedure was a popliteal lymph node (PLN) test procedure which measured the effect of compounds of this invention on a mixed lymphocyte reaction and the second in vivo procedure evaluated the survival time of a pinch skin graft.
The second in vivo test procedure is designed to determine the survival time of pinch skin graft from male DBA/2 donors transplanted to male BALB/c recipients. The method is adapted from Billingham R.E. and Medawar P.B., J. Exp. Biol. 28:385-402, (1951). Briefly, a pinch skin graft from the donor is grafted on the dorsum of the recipient as a homograft, and an autograft is used as control in the same region. […] Untreated recipients serve as rejection control. The graft is monitored daily and observations are recorded until the graft becomes dry and forms a blackened scab. This is considered as the rejection day. The mean graft survival time (number of days ±S.D.) of the drug treatment group is compared with the control group.

Candida albicans 3669 = experiment: antifungal plate test, MIC; type: cell-based
Description: (§1) The following represents the typical procedure used. Compound to be tested was placed on sterile dried 1/4" plate disks, and allowed to dry. Agar plates were seeded with fungi and allowed to solidify. The impregnated disks were placed on the seeded Agar surface and incubated for the time required for the particular culture. Results are expressed in MIC (μg/ml) to inhibit growth.

[2] = test system: Candida albicans ATCC 10231; experiment: antifungal plate test, MIC; type: cell-based; details: ATCC10231
Description: as §1

[3] = test system: Candida albicans ATCC 38246; experiment: antifungal plate test, MIC; type: cell-based; details: ATCC38246
Description: as §1

[4] = test system: Candida albicans ATCC 38247; experiment: antifungal plate test, MIC; type: cell-based; details: ATCC38247
Description: as §1

[5] = test system: Candida albicans ATCC 38248; experiment: antifungal plate test, MIC; type: cell-based; details: ATCC38248
Description: as §1

transplant rejection = details: cited from earlier work

Structure (SMILES)	MIC (Candida albicans 3669)	MIC [2]	MIC [3]	MIC [4]	MIC [5]	Skin Graft (days + SD), mean graft survival time [1]	inhibition of transplant rejection / immunosuppressive effect (in words) (transplant rejection)
CO[C@H]1C[C@@H]2CC[C@@H](C)[C@@](O)(O2)C(=O)C(=O)N2CCCC[C@H]2C(=O)O[C@H]([C@H](C)C[C@@H]2CC[C@@H](OC(=O)[C@H](CCC(=O)OC(C)(C)C)NC(=O)OC(C)(C)C)[C@H](OC)C2)CC(=O)[C@H](C)/C=C(\C)[C@@H](OC(=O)[C@H](CCC(=O)OC(C)(C)C)NC(=O)OC(C)(C)C)[C@@H](OC)C(=O)[C@H](C)C[C@H](C)/C=C/C=C/C=C/1C [Example 5, Rapamycin-31,42-diester with 5-(1,1-dimethylethoxy)-2-[[(1,1-dimethylethoxy)carbonyl]amino]-5-oxopentanoic acid]	> 0.4 µg/mL	> 0.4 µg/mL	> 0.4 µg/mL	> 0.4 µg/mL	> 0.4 µg/mL	8.8 ± 0.9 days	
CO[C@H]1C[C@@H]2CC[C@@H](C)[C@@](O)(O2)C(=O)C(=O)N2CCCC[C@H]2C(=O)O[C@H]([C@H](C)C[C@@H]2CC[C@@H](OC(=O)[C@H](CC(=O)OCc3ccccc3)NC(=O)OC(C)(C)C)[C@H](OC)C2)CC(=O)[C@H](C)/C=C(\C)[C@@H](OC(=O)[C@H](CC(=O)OCc2ccccc2)NC(=O)OC(C)(C)C)[C@@H](OC)C(=O)[C@H](C)C[C@H](C)/C=C/C=C/C=C/1C [Example 7, Rapamycin-31,42-diester with 2-[[(1,1-dimethylethoxy)carbonyl]amino]-4-oxo-4-(phenylmethoxy) butanoic acid]						7.7 ± 1.5 days	
CO[C@H]1C[C@@H]2CC[C@@H](C)[C@@](O)(O2)C(=O)C(=O)N2CCCC[C@H]2C(=O)O[C@H]([C@H](C)C[C@@H]2CC[C@@H](OC(=O)C[C@H](NC(=O)OC(C)(C)C)C(=O)OCc3ccccc3)[C@H](OC)C2)CC(=O)[C@H](C)/C=C(\C)[C@@H](OC(=O)C[C@H](NC(=O)OC(C)(C)C)C(=O)OCc2ccccc2)[C@@H](OC)C(=O)[C@H](C)C[C@H](C)/C=C/C=C/C=C/1C [Example 8, Rapamycin-31,42-diester with 3-[[(1,1-dimethylethoxy)carbonyl]amino]-4-oxo-4-(phenylmethoxy) butanoic acid]	> 0.4 µg/mL	> 0.4 µg/mL	> 0.4 µg/mL	> 0.4 µg/mL	> 0.4 µg/mL		
CO[C@H]1C[C@@H]2CC[C@@H](C)[C@@](O)(O2)C(=O)C(=O)N2CCCC[C@H]2C(=O)O[C@H]([C@H](C)C[C@@H]2CC[C@@H](OC(=O)C[C@H](NC(=O)OC(C)(C)C)C(=O)OCc3ccccc3)[C@H](OC)C2)CC(=O)[C@H](C)/C=C(\C)[C@@H](O)[C@@H](OC)C(=O)[C@H](C)C[C@H](C)/C=C/C=C/C=C/1C [Example 9, Rapamycin-42-ester with 3-[[(1,1-dimethylethoxy)carbonyl]amino]-4-oxo-4-(phenylmethoxy) butanoic acid]	> 0.4 µg/mL	0.4 µg/mL (≈ 0.328 µM)	> 0.4 µg/mL	0.4 µg/mL (≈ 0.328 µM)	> 0.4 µg/mL	10.3 ± 0.8 days	
CO[C@H]1C[C@@H]2CC[C@@H](C)[C@@](O)(O2)C(=O)C(=O)N2CCCC[C@H]2C(=O)O[C@H]([C@H](C)C[C@@H]2CC[C@@H](OC(=O)CC[C@H](NC(=O)OC(C)(C)C)C(=O)OC(C)(C)C)[C@H](OC)C2)CC(=O)[C@H](C)/C=C(\C)[C@@H](OC(=O)CC[C@H](NC(=O)OC(C)(C)C)C(=O)OC(C)(C)C)[C@@H](OC)C(=O)[C@H](C)C[C@H](C)/C=C/C=C/C=C/1C [Example 11, Rapamycin-31,42-diester with 5-(1,1-dimethylethoxy)-4-[[(1,1-dimethylethoxy)-carbonyl]-amino]-5-oxopentanoic acid]	> 0.4 µg/mL	> 0.4 µg/mL	> 0.4 µg/mL	> 0.4 µg/mL	> 0.4 µg/mL	10.5 ± 1.3 days	
CO[C@H]1C[C@@H]2CC[C@@H](C)[C@@](O)(O2)C(=O)C(=O)N2CCCC[C@H]2C(=O)O[C@H]([C@H](C)C[C@@H]2CC[C@@H](OC(=O)[C@H](CCCCNC(=O)OC(C)(C)C)NC(=O)OC(C)(C)C)[C@H](OC)C2)CC(=O)[C@H](C)/C=C(\C)[C@@H](OC(=O)[C@H](CCCCNC(=O)OC(C)(C)C)NC(=O)OC(C)(C)C)[C@@H](OC)C(=O)[C@H](C)C[C@H](C)/C=C/C=C/C=C/1C [Example 13, Rapamycin-31,42-diester with N^α, N^ε bis [(1,1-dimethylethoxy)carbonyl]-L-lysine]	> 0.4 µg/mL	> 0.4 µg/mL	> 0.4 µg/mL	> 0.4 µg/mL	> 0.4 µg/mL	7.0 ± 0.6 days	
C=CC[C@@H]1/C=C(\C)C[C@H](C)C[C@H](OC)[C@H]2O[C@@](O)(C(=O)C(=O)N3CCCC[C@H]3C(=O)O[C@H](/C(C)=C/[C@@H]3CC[C@@H](O)[C@H](OC)C3)[C@H](C)[C@@H](O)CC1=O)[C@H](C)C[C@@H]2OC [FK-506]							effective as immunosuppressive agents

More lines, main results first:

MIC (Candida albicans 3669)	MIC [2]	MIC [3]	MIC [4]	MIC [5]	Structure (SMILES)	Skin Graft (days + SD), mean graft survival time [1]	inhibition of transplant rejection / immunosuppressive effect (in words) (transplant rejection)
> 0.4 µg/mL	> 0.4 µg/mL	> 0.4 µg/mL	> 0.4 µg/mL	> 0.4 µg/mL	CO[C@H]1C[C@@H]2CC[C@@H](C)[C@@](O)(O2)C(=O)C(=O)N2CCCC[C@H]2C(=O)O[C@H]([C@H](C)C[C@@H]2CC[C@@H](OC(=O)CNC(=O)CNC(=O)OC(C)(C)C)[C@H](OC)C2)CC(=O)[C@H](C)/C=C(\C)[C@@H](O)[C@@H](OC)C(=O)[C@H](C)C[C@H](C)/C=C/C=C/C=C/1C [Example 1, Rapamycin-42-ester with N-[(1,1-dimethylethoxy)carbonyl]-glycylglycine]	12.0 ± 1.6 days	
0.1 µg/mL (≈ 0.0745 µM)	0.1 µg/mL (≈ 0.0745 µM)	0.2 µg/mL (≈ 0.149 µM)	0.2 µg/mL (≈ 0.149 µM)	0.2 µg/mL (≈ 0.149 µM)	CO[C@H]1C[C@@H]2CC[C@@H](C)[C@@](O)(O2)C(=O)C(=O)N2CCCC[C@H]2C(=O)O[C@H]([C@H](C)C[C@@H]2CC[C@@H](OC(=O)CNC(=O)CNC(=O)OC(C)(C)C)[C@H](OC)C2)CC(=O)[C@H](C)/C=C(\C)[C@@H](OC(=O)CNC(=O)CNC(=O)OC(C)(C)C)[C@@H](OC)C(=O)[C@H](C)C[C@H](C)/C=C/C=C/C=C/1C [Example 2, Rapamycin-31,42-diester with N-[(1,1-dimethylethoxy)carbonyl]-glycylglycine]	11.5 ± 0.6 days	
0.4 µg/mL (≈ 0.318 µM)	0.4 µg/mL (≈ 0.318 µM)	> 0.4 µg/mL	> 0.4 µg/mL	> 0.4 µg/mL	CO[C@H]1C[C@@H]2CC[C@@H](C)[C@@](O)(O2)C(=O)C(=O)N2CCCC[C@H]2C(=O)O[C@H]([C@H](C)C[C@@H]2CC[C@@H](OC(=O)CN(C)C(=O)OC(C)(C)C)[C@H](OC)C2)CC(=O)[C@H](C)/C=C(\C)[C@@H](OC(=O)CN(C)C(=O)OC(C)(C)C)[C@@H](OC)C(=O)[C@H](C)C[C@H](C)/C=C/C=C/C=C/1C [Example 3, Rapamycin-31,42-diester with N-[(1,1-dimethylethoxy)carbonyl]-N-methylglycine]	9.0 ± 0.9 days	
0.2 µg/mL (≈ 0.184 µM)	0.1 µg/mL (≈ 0.0921 µM)	0.4 µg/mL (≈ 0.369 µM)	0.1 µg/mL (≈ 0.0921 µM)	0.1 µg/mL (≈ 0.0921 µM)	CO[C@H]1C[C@@H]2CC[C@@H](C)[C@@](O)(O2)C(=O)C(=O)N2CCCC[C@H]2C(=O)O[C@H]([C@H](C)C[C@@H]2CC[C@@H](OC(=O)CN(C)C(=O)OC(C)(C)C)[C@H](OC)C2)CC(=O)[C@H](C)/C=C(\C)[C@@H](O)[C@@H](OC)C(=O)[C@H](C)C[C@H](C)/C=C/C=C/C=C/1C [Example 4, Rapamycin-42-ester with N-[(1,1-dimethylethoxy)carbonyl]-N-methylglycine]	12.3 ± 0.5 days	
> 0.4 µg/mL	0.1 µg/mL (≈ 0.0834 µM)	> 0.4 µg/mL	0.2 µg/mL (≈ 0.167 µM)	0.4 µg/mL (≈ 0.333 µM)	CO[C@H]1C[C@@H]2CC[C@@H](C)[C@@](O)(O2)C(=O)C(=O)N2CCCC[C@H]2C(=O)O[C@H]([C@H](C)C[C@@H]2CC[C@@H](OC(=O)[C@H](CCC(=O)OC(C)(C)C)NC(=O)OC(C)(C)C)[C@H](OC)C2)CC(=O)[C@H](C)/C=C(\C)[C@@H](O)[C@@H](OC)C(=O)[C@H](C)C[C@H](C)/C=C/C=C/C=C/1C [Example 6, Rapamycin-42-ester with 5-(1,1-dimethylethoxy)-2-[[(1,1-dimethylethoxy)carbonyl]amino]-5-oxopentanoic acid]	11.5 ± 3.5 days	
0.4 µg/mL (≈ 0.333 µM)	0.2 µg/mL (≈ 0.167 µM)	> 0.4 µg/mL	0.2 µg/mL (≈ 0.167 µM)	0.4 µg/mL (≈ 0.333 µM)	CO[C@H]1C[C@@H]2CC[C@@H](C)[C@@](O)(O2)C(=O)C(=O)N2CCCC[C@H]2C(=O)O[C@H]([C@H](C)C[C@@H]2CC[C@@H](OC(=O)CC[C@H](NC(=O)OC(C)(C)C)C(=O)OC(C)(C)C)[C@H](OC)C2)CC(=O)[C@H](C)/C=C(\C)[C@@H](O)[C@@H](OC)C(=O)[C@H](C)C[C@H](C)/C=C/C=C/C=C/1C [Example 10, Rapamycin-42-ester with 5-(1,1-dimethyloxy)-4-[[(1,1-dimethylethoxy)carbonyl]amino]-5-oxopentanoicacid]	12.7 ± 1.2 days	
